# From ChEMBL document CHEMBL3600382, “A-ring substituted 17β-arylsulfonamides of 17β-aminoestra-1,3,5(10)-trien-3-ol as highly potent reversible inhibitors of steroid sulfatase” (Bioorg Med Chem, 2015)
# System: A549
# Experiment: Cytotoxicity against human A549 cells
# Format: functional
row,SMILES,GI50
1,C[C@]12CC[C@@H]3c4ccc(O)c([N+](=O)[O-])c4CC[C@H]3[C@@H]1CC[C@@H]2NS(=O)(=O)c1cccc(Br)c1,1000 nM

# System: SF-268
# Experiment: Cytotoxicity against human SF268 cells
# Format: functional
row,SMILES,GI50
1,C[C@]12CC[C@@H]3c4ccc(O)c([N+](=O)[O-])c4CC[C@H]3[C@@H]1CC[C@@H]2NS(=O)(=O)c1cccc(Br)c1,1000 nM

# System: MDA-MB-468
# Experiment: Cytotoxicity against human MDA-MB-468 cells
# Format: functional
row,SMILES,GI50
1,C[C@]12CC[C@@H]3c4ccc(O)c([N+](=O)[O-])c4CC[C@H]3[C@@H]1CC[C@@H]2NS(=O)(=O)c1cccc(Br)c1,2200 nM

# System: SNB-75
# Experiment: Cytotoxicity against human SNB75 cells
# Format: functional
row,SMILES,GI50
1,C[C@]12CC[C@@H]3c4ccc(O)c([N+](=O)[O-])c4CC[C@H]3[C@@H]1CC[C@@H]2NS(=O)(=O)c1cccc(Br)c1,1000 nM

# System: BT-549
# Experiment: Cytotoxicity against human BT549 cells
# Format: functional
row,SMILES,GI50
1,C[C@]12CC[C@@H]3c4ccc(O)c([N+](=O)[O-])c4CC[C@H]3[C@@H]1CC[C@@H]2NS(=O)(=O)c1cccc(Br)c1,1600 nM

# System: T47D
# Experiment: Cytotoxicity against human T47D cells
# Format: functional
row,SMILES,GI50
1,C[C@]12CC[C@@H]3c4ccc(O)c([N+](=O)[O-])c4CC[C@H]3[C@@H]1CC[C@@H]2NS(=O)(=O)c1cccc(Br)c1,2500 nM

# System: UACC-257
# Experiment: Cytotoxicity against human UACC257 cells
# Format: functional
row,SMILES,GI50
1,C[C@]12CC[C@@H]3c4ccc(O)c([N+](=O)[O-])c4CC[C@H]3[C@@H]1CC[C@@H]2NS(=O)(=O)c1cccc(Br)c1,1000 nM

# System: PC-3
# Experiment: Cytotoxicity against human PC3 cells
# Format: functional
row,SMILES,GI50
1,C[C@]12CC[C@@H]3c4ccc(O)c([N+](=O)[O-])c4CC[C@H]3[C@@H]1CC[C@@H]2NS(=O)(=O)c1cccc(Br)c1,1000 nM

# System: CCRF-CEM
# Experiment: Cytotoxicity against human CCRF-CEM cells
# Format: functional
row,SMILES,GI50
1,C[C@]12CC[C@@H]3c4ccc(O)c([N+](=O)[O-])c4CC[C@H]3[C@@H]1CC[C@@H]2NS(=O)(=O)c1cccc(Br)c1,1000 nM

# System: SR
# Experiment: Cytotoxicity against human SR cells
# Format: functional
row,SMILES,GI50
1,C[C@]12CC[C@@H]3c4ccc(O)c([N+](=O)[O-])c4CC[C@H]3[C@@H]1CC[C@@H]2NS(=O)(=O)c1cccc(Br)c1,1000 nM

# System: SW-620
# Experiment: Cytotoxicity against human SW620 cells
# Format: functional
row,SMILES,GI50
1,C[C@]12CC[C@@H]3c4ccc(O)c([N+](=O)[O-])c4CC[C@H]3[C@@H]1CC[C@@H]2NS(=O)(=O)c1cccc(Br)c1,1000 nM

# System: RPMI-8226
# Experiment: Cytotoxicity against human RPMI8226 cells
# Format: functional
row,SMILES,GI50
1,C[C@]12CC[C@@H]3c4ccc(O)c([N+](=O)[O-])c4CC[C@H]3[C@@H]1CC[C@@H]2NS(=O)(=O)c1cccc(Br)c1,1000 nM

# System: KM12
# Experiment: Cytotoxicity against human KM12 cells
# Format: functional
row,SMILES,GI50
1,C[C@]12CC[C@@H]3c4ccc(O)c([N+](=O)[O-])c4CC[C@H]3[C@@H]1CC[C@@H]2NS(=O)(=O)c1cccc(Br)c1,1000 nM

# System: COLO 205
# Experiment: Cytotoxicity against human COLO205 cells
# Format: functional
row,SMILES,GI50
1,C[C@]12CC[C@@H]3c4ccc(O)c([N+](=O)[O-])c4CC[C@H]3[C@@H]1CC[C@@H]2NS(=O)(=O)c1cccc(Br)c1,1000 nM

# System: M14
# Experiment: Cytotoxicity against human M14 cells
# Format: functional
row,SMILES,GI50
1,C[C@]12CC[C@@H]3c4ccc(O)c([N+](=O)[O-])c4CC[C@H]3[C@@H]1CC[C@@H]2NS(=O)(=O)c1cccc(Br)c1,1000 nM

# System: SK-MEL-2
# Experiment: Cytotoxicity against human SK-MEL-2 cells
# Format: functional
row,SMILES,GI50
1,C[C@]12CC[C@@H]3c4ccc(O)c([N+](=O)[O-])c4CC[C@H]3[C@@H]1CC[C@@H]2NS(=O)(=O)c1cccc(Br)c1,1000 nM

# System: U-251
# Experiment: Cytotoxicity against human U251 cells
# Format: functional
row,SMILES,GI50
1,C[C@]12CC[C@@H]3c4ccc(O)c([N+](=O)[O-])c4CC[C@H]3[C@@H]1CC[C@@H]2NS(=O)(=O)c1cccc(Br)c1,1000 nM

# System: OVCAR-5
# Experiment: Cytotoxicity against human OVCAR5 cells
# Format: functional
row,SMILES,GI50
1,C[C@]12CC[C@@H]3c4ccc(O)c([N+](=O)[O-])c4CC[C@H]3[C@@H]1CC[C@@H]2NS(=O)(=O)c1cccc(Br)c1,1000 nM

# System: SK-MEL-5
# Experiment: Cytotoxicity against human SK-MEL-5 cells
# Format: functional
row,SMILES,GI50
1,C[C@]12CC[C@@H]3c4ccc(O)c([N+](=O)[O-])c4CC[C@H]3[C@@H]1CC[C@@H]2NS(=O)(=O)c1cccc(Br)c1,1000 nM

# System: HCC 2998
# Experiment: Cytotoxicity against human HCC2998 cells
# Format: functional
row,SMILES,GI50
1,C[C@]12CC[C@@H]3c4ccc(O)c([N+](=O)[O-])c4CC[C@H]3[C@@H]1CC[C@@H]2NS(=O)(=O)c1cccc(Br)c1,1000 nM

# System: SN12C
# Experiment: Cytotoxicity against human SN12C cells
# Format: functional
row,SMILES,GI50
1,C[C@]12CC[C@@H]3c4ccc(O)c([N+](=O)[O-])c4CC[C@H]3[C@@H]1CC[C@@H]2NS(=O)(=O)c1cccc(Br)c1,1000 nM

# System: NCI-H23
# Experiment: Cytotoxicity against human NCI-H23 cells
# Format: functional
row,SMILES,GI50
1,C[C@]12CC[C@@H]3c4ccc(O)c([N+](=O)[O-])c4CC[C@H]3[C@@H]1CC[C@@H]2NS(=O)(=O)c1cccc(Br)c1,1000 nM

# System: NCI-H460
# Experiment: Cytotoxicity against human NCI-H460 cells
# Format: functional
row,SMILES,GI50
1,C[C@]12CC[C@@H]3c4ccc(O)c([N+](=O)[O-])c4CC[C@H]3[C@@H]1CC[C@@H]2NS(=O)(=O)c1cccc(Br)c1,1000 nM

# System: MOLT-4
# Experiment: Cytotoxicity against human MOLT4 cells
# Format: functional
row,SMILES,GI50
1,C[C@]12CC[C@@H]3c4ccc(O)c([N+](=O)[O-])c4CC[C@H]3[C@@H]1CC[C@@H]2NS(=O)(=O)c1cccc(Br)c1,1000 nM
